“Also recorded” adds a separate entry of the source. Like-named read-outs stand apart in the source and are kept apart here.
Legend:
ASCT2 [1] = biological target: ASCT2 (Rattus norvegicus (Rat), UniProt D3ZJ25); experiment: Inhibition of ASCT2-mediated glutamine uptake in C6 (rat) cells; format: cell-based; conditions: for IC50: C6 (rat) cells, glutamine uptake, mean of at least 3 biological replicates; for preference for blocking glutamine transport in rat vs human cell line: C6 (rat) vs HEK293 (human)
Sequence of ASCT2 (Rattus norvegicus (Rat), UniProt D3ZJ25) (D3ZJ25 whole entry): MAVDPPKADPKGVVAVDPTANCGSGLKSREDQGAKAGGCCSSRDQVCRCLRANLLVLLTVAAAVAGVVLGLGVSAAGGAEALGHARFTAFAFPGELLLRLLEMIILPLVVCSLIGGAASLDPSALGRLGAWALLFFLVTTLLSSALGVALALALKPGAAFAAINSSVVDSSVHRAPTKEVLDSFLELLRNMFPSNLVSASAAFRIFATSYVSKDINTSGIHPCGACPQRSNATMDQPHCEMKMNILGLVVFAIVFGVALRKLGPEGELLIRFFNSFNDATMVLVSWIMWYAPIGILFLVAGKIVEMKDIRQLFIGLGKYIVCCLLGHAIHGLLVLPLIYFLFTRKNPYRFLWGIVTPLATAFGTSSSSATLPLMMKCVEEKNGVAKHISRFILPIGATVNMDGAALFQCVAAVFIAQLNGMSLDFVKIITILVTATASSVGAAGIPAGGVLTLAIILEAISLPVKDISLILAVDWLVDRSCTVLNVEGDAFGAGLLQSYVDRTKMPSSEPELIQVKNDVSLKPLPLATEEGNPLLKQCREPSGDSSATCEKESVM

ASCT2 [2] = biological target: ASCT2 (Homo sapiens (Human), UniProt Q15758); experiment: Inhibition of ASCT2-mediated 3H-glutamine uptake in live HEK293 (human) cells; format: cell-based
Sequence of ASCT2 (Homo sapiens (Human), UniProt Q15758) (Q15758 whole entry): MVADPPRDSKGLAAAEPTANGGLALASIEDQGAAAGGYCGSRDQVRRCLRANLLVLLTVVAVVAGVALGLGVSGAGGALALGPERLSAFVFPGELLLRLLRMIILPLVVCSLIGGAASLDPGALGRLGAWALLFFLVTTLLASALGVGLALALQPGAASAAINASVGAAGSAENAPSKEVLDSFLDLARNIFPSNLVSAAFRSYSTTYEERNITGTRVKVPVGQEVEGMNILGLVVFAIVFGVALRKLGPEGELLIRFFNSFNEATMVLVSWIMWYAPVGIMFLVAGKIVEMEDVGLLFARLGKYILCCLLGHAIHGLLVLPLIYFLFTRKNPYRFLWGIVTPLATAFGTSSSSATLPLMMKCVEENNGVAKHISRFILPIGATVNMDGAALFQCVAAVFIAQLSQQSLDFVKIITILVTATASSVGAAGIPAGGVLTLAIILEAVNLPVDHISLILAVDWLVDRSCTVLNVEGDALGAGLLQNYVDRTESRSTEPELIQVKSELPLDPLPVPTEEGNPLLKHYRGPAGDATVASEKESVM

ASCT2 [3] = conditions: cited from earlier work
human CRC cell lines = experiment: Follow-up viability screening (MultiTox Glo, sulforhodamine B); format: cell-based; conditions: four human CRC cell lines; 48 hrs; MultiTox Glo
Procedure: (§1) Viability was evaluated using a commercially available chemiluminescent reagents (CellTiter-Glo, Promega Corp. G7572; MultiTox Glo, Promega Corp. G9270) in 96-well plate format according to the manufacturers protocol. […] Subsequently, CellTiter-Glo reagent was added and the plates were read using a plate reader (BioTek Synergy 4) with standard settings. Each set of conditions was replicated at least three times, technically and biologically. Error is reported as standard deviation (SD). The sulforhodamine B assay was run analogously to the above assays as previously described^19.

HT29 and HCT-116 cells = experiment: Cell viability with or without chloroquine; format: cell-based, human; conditions: 48 h
Procedure: as §1

[4] = test system: human CRC organoids A-007 and A-008; experiment: Human CRC organoid viability assay; format: cell-based; conditions: V-9302 25 μM or CB-839 35 μM, 96 h
Procedure: Human CRC-derived organoids were prepared as reported method with modification^41. Briefly, specimens from freshly resected tumors were minced and digested with 2 mg/ml type 2 collagenase (Worthington, N.J., USA). Samples were passed through 40 µm filters (Greiner Bio One, NC, USA) and epithelial cells trapped on the filters were embed in Matrigel (Corning, MA, USA) and cultured with advanced DMEM/F12 supplemented with N2 and B27 supplements (Thermo Fischer, MA, USA), 50 ng/ml rhEGF (R&D systems, MN, USA) and 1% antibiotic-antimycotic (Corning). For viability assay, organoids were dissociated by TrypLE express (Thermo Fischer) and suspended in Matrigel. […] After 4 days of culture, images of the organoids in Matrigel were captured and the number of viable cells were quantified with CellTiter Aqueous One Cell Proliferation Assay kit (Promega, WI, USA) and a Synergy 4 plate reader (BioTek, VT, USA). The assay was replicated at least three times, technically and biologically. Significance was calculated using a t-test in Graphpad Prism. Error is reported as standard deviation (SD).

HT29 cells = experiment: Glutathione and reactive oxygen species in HT29 cells; format: cell-based, human; conditions: 48 h
Procedure: Glutathione levels were measured using a commercially available kit (Cayman Chemical 703002) according to the manufacturers protocol. Concurrently ROS was measured in cells using CM-H2DCFDA (Life Technologies C6827) coupled with flow cytometry in accordance with the manufacturers protocol. The assay was replicated replicated at least three times, technically and biologically. Significance was calculated using a t-test in Graphpad Prism. Error is reported as standard deviation (SD).

HCC1806 and HT29 cells = experiment: Autophagic flux (CYTO-ID); format: cell-based, human; conditions: single agent
Procedure: Autophagic flux was measure using the CYTO-ID autophagy detection kit (Enzo Life Sciences ENZ-51031). HCC1806 and HT29 cells were seeded in 96 well plates the day before the experiment. […] Following treatment, cells were gently washed with assay buffer followed by addition of the dual color detection solution and incubation at 37° C. for 30 min. The plate was analyzed on a fluorescence microplane reader (BioTek Synergy 4).

[5] = test system: pERK in HCC1806 and HT29 cells; experiment: AlphaScreen SureFire pERK assay; format: cell-based, human; conditions: 48 h
Procedure: Detection of activated ERK in cell lysates was enabled by the AlphaScreen SureFire ERK assay (Perkin Elmer) according to the manufacturers protocol. Cells were plated in 96-well plates for 24 hours prior to the assay.

HCC1806 cells = experiment: Cell viability in HCC1806 cells; format: cell-based; conditions: Homo sapiens, exposure 48 hrs
[6] = HEK293 (human) cells, glutamine uptake, mean of at least 3 biological replicates, read-out: IC50 (human)

| SMILES | IC50 (ASCT2 [1]) [µM] | IC50 (ASCT2 [2]; [6]) [µM] | also measured |
| --- | --- | --- | --- |
| N[C@H](CCN(Cc1ccccc1Oc1ccccc1F)Cc1ccccc1Oc1ccccc1F)C(=O)O [Compound 8] | 1.8 | 33.8 | preference for blocking glutamine transport in rat vs human cell line (ASCT2 [1]): some preference for blocking glutamine transport in the rat cell line |
| Cc1ccc(Oc2ccccc2CN(CC[C@@H](N)C(=O)O)Cc2ccccc2Oc2ccc(F)cc2)cc1 [Compound 10] | 10.5 | 142 | preference for blocking glutamine transport in rat vs human cell line (ASCT2 [1]): some preference for blocking glutamine transport in the rat cell line |
| N[C@@H](COC(=O)c1ccc(-c2ccccc2)cc1)C(=O)O [O-(4-phenylbenzoyl)-L-serine] |  |  | Ki (ASCT2 [3]; Albers et al., read-out: apparent affinity): 30 µM |
| O=C(Cc1cccc(OC(F)(F)F)c1)Nc1ccc(CCCCc2nnc(NC(=O)Cc3ccccn3)s2)nn1 [CB-839, reference compound] |  |  | EC50, cellular viability (human CRC cell lines): did not exhibit appreciable activity; cell viability, single agent (HT29 and HCT-116 cells): did not decrease cell viability; organoid viability [4]: not significantly affected; GSSG levels and ROS (HT29 cells): not observed; autophagic flux (HCC1806 and HT29 cells): did not lead to elevated autophagic flux; pERK (independent biochemical assay) [5]: not observed |
| N[C@H](CCN(Cc1ccccc1Oc1cccc(F)c1)Cc1ccccc1Oc1cccc(F)c1)C(=O)O [Compound 9] | 36.3 |  |  |
| N[C@H](CCN(Cc1ccccc1OCc1ccc(F)cc1)Cc1ccccc1OCc1ccc(F)cc1)C(=O)O [Compound 20] | 11.2 |  |  |
| COc1cccc(COc2ccccc2CN(CC[C@@H](N)C(=O)O)Cc2ccccc2OCc2cccc(OC)c2)c1 [Compound 12] | 5.1 | 7.2 |  |
| Cc1cccc(COc2ccccc2CN(Cc2ccccc2OCc2cccc(C)c2)C2CCN[C@H](C(=O)O)C2)c1 (stereo partly drawn) [WJB-A-110, (2S)-4-(Bis(2-((3-methylbenzyl)oxy)benzyl)amino)piperidine-2-carboxylic Acid] |  |  | IC50 (HCC1806 cells): 32 µM |
| Cc1ccccc1COc1ccccc1CN(CC[C@@H](N)C(=O)O)Cc1ccccc1OCc1ccccc1C [Compound 16] | 41.7 | 25.6 |  |
| COc1ccc(Oc2ccccc2CN(CC[C@@H](N)C(=O)O)Cc2ccccc2Oc2ccc(OC)cc2)cc1 [Compound 6] | 8.7 | 11.9 | preference for blocking glutamine transport in rat vs human cell line (ASCT2 [1]): roughly equal potencies in both cells lines |
| COc1cccc(Oc2ccccc2CN(CC[C@@H](N)C(=O)O)Cc2ccccc2Oc2ccccc2OC)c1 [Compound 5] | 1.3 | 57.2 | preference for blocking glutamine transport in rat vs human cell line (ASCT2 [1]): exhibited this preference |
| N[C@@H](CCC(=O)Nc1ccc([N+](=O)[O-])cc1)C(=O)O [GPNA, L-γ-glutamyl-p-nitroanilide] |  |  | potency as ASCT2 inhibitor (previously reported) (ASCT2 [3]): poor potency and selectivity in human cells; also recorded: modest potency in the low millimolar range; IC50 (ASCT2 [2]; live HEK-293 cells, read-out: IC50, inhibition of ASCT2-mediated glutamine uptake in human cells): 1000 µM |
| Cc1cccc(COc2ccccc2CN(Cc2ccccc2OCc2cccc(C)c2)C2CN[C@H](C(=O)O)C2)c1 (stereo partly drawn) [WJB-A-119, (2S)-4-(Bis(2-((3-methylbenzyl)oxy)benzyl)amino)pyrrolidine-2-carboxylic Acid] |  |  | IC50 (HCC1806 cells): 23 µM |
| N[C@H](CCN(Cc1ccccc1Oc1cccc(Cl)c1)Cc1ccccc1Oc1cccc(Cl)c1)C(=O)O [Compound 7] |  | 26 |  |
| NC(=O)CC[C@H](Nc1ccccc1CN1CCOCC1)C(=O)O [N-(2-(morpholinomethyl)phenyl)-L-glutamine] |  |  | activity against ASCT2 compared to GPNA (previously described) (ASCT2 [3]): three-fold improved activity |

The next lines start with results.

| IC50 (ASCT2 [1]) [µM] | IC50 (ASCT2 [2]; [6]) [µM] | SMILES | also measured |
| --- | --- | --- | --- |
| 18.4 | 40.1 | N[C@H](CCN(Cc1ccccc1OCc1ccccc1Cl)Cc1ccccc1OCc1ccccc1Cl)C(=O)O [Compound 13] |  |
| 17.3 | 89.1 | N[C@H](CCN(Cc1ccccc1OCc1cccnc1)Cc1ccccc1OCc1cccnc1)C(=O)O [Compound 22] |  |
| 8.4 | 48.3 | N[C@H](CCN(Cc1ccccc1OCc1ccccn1)Cc1ccccc1OCc1ccccn1)C(=O)O [Compound 21] |  |
| 9 |  | Cc1cccc(COc2ccccc2CN(CC[C@@H](N)C(=O)O)Cc2ccccc2OCc2cccc(C)c2)c1 [Compound 17] |  |
| 20.1 | 33.7 | N[C@H](CCN(Cc1ccccc1OCc1ccc(Cl)cc1)Cc1ccccc1OCc1ccc(Cl)cc1)C(=O)O [Compound 15] |  |
| 86.4 | 17.5 | Cc1ccc(COc2ccccc2CN(CC[C@@H](N)C(=O)O)Cc2ccccc2OCc2ccc(C)cc2)cc1 [Compound 18] | preference for blocking glutamine transport in rat vs human cell line (ASCT2 [1]): significant preference for inhibiting glutamine uptake in the human form of ASCT2 |
| 68.2 | 59.6 | N[C@H](CCN(Cc1ccccc1Oc1ccccn1)Cc1ccccc1Oc1ccccn1)C(=O)O [Compound 11] | preference for blocking glutamine transport in rat vs human cell line (ASCT2 [1]): roughly equal potencies in both cells lines |
| 3.3 |  | N[C@H](CCN(Cc1ccccc1OCc1ccccc1F)Cc1ccccc1OCc1ccccc1F)C(=O)O [Compound 19] |  |
| 12.7 | 50.8 | N[C@H](CCN(Cc1ccccc1OCc1cccc(O)c1)Cc1ccccc1OCc1cccc(Cl)c1)C(=O)O [Compound 14] |  |
